One data set has as its system peach. The conditions noted are these: low rate (0.08 mM); cited from earlier work.
The next data set deals with horticultural plants. The note with it: several horticultural plants; cited from earlier work.
The next data set can be described thus: physchem. The note with it: water.
The next data set has as its system Cotton. Format: in vivo. The conditions noted are these: mc column, mepiquat chloride 12 g/ha.
For another data set, the system named is cotton plants. The conditions noted are these: approximately 62.5 to 500 g ai/ha assuming spray volume 500 l/ha; cited from earlier work.

In general, half-life refers to the time in which the quantity being followed falls by half. Read a low half-life as rapid decline.

Method for physchem: Formulations of the present invention were prepared as described in Example 1 and were tested for hydrolysis half-life.

Consider `O=P(O)(O)CCCl` [ethephon], for which, in the data set with peach, the “effect on bloom and side effects in peach” value is “significantly delayed bloom in peach and reduced side effects”. Moreover, the “effect on yields and hardiness” value in the data set with horticultural plants was “increased the yields and hardiness of several horticultural plants”.

As to `COC(=O)COC(=O)CON=C(C)C` [{[(isopropylidene)-amino]oxy}-acetic acid-2-(methoxy)-2-oxoethyl ester], the half-life in “physchem” lay in the range of 12 to 21 days.

On to `C[N+]1(C)CCCCC1` [mepiquat chloride], for which, in the data set on Cotton, the “Frequency of Positive Yield” value came out at 38% and the “Relative Yield (% compared to untreated)” value was determined as 102%.

With `NCCOC=CC(N)C(=O)O` (stereo not drawn) [aminoethoxyvinylglycine], the “improvement in a plant growth factor with increasing rate” value in the data set with cotton plants is “As the rate of AVG treatment increased, so did the improvement”.

The values are drawn from patent US6255250A, “Plant growth regulators in pyrrolidone solvents” (BASF Corporation, priority 1997, dated 2001).
